pIC50: −log10 of the molar value. Counter-ions that a name gives are not always drawn.
How the values were obtained:
[1] = system: human Lennert's T cell lymphoma KT-3 cells; assay: Inhibition of IL-6-induced proliferation of KT-3 cells (CellTiter Glo viability); assay type: cell-based; details: read-out: IC50 (the concentration at which a compound suppresses cell growth by 50%), hIL-6 2.5 ng/ml, 48 hours
Description: Inhibitory Effects on Proliferation of Human Lernert's T Cell Lymphoma KT-3
Inhibitory effects of compounds of this invention on the growth of human Lennert's T cell lymphoma KT-3 cells, an IL-6-dependent cell line, were determined as described below. […] To experimental wells, test compounds at various concentrations (in triplicates) were added immediately after the cells were plated. To the control wells, an equal volume of vehicle, DMSO (0.1% v/v), was added. After incubating the cells with the compounds or in vehicle for 48 hours, cell viability was assessed using a CellTiter Glo Luminescent Cell Viability Assay Kit (Promega, Madison, Wis.). The resultant luminescence was quantified using Microplate Luminometer LB96V (EG&G BERTH HOLD) according to the manufacturer's protocol. The cell surviving rate was calculated by dividing the luminescence value of compound-treated cells with that of vehicle-treated cells.

[2] = Inhibition of growth of various human tumor cell lines (MTT); assay type: cell-based; details: Homo sapiens, range over all tumor cell lines tested, 72 h, read-out: IC50 values, growth of all tumor cells tested
Description: (§1) Inhibition of Growth of Various Human Tumor Cell Lines
(§2) The inhibitory effects of Compound 6 were determined as described below on the growth of colon cancer cells (HCT116, HT29, SW480, and SW620), colon adenocarcinoma cells (Colo205), prostate adenocarcinoma cells (PC-3 and Dul145), prostate carcinoma cells (CWR22RV and LNCap), non-small cell lung carcinoma cells (NCI-H1299), lung adnocarcinoma cells (A549), large cell lung carcinoma cells (NCI-H460), breast metastatic carcinoma cells (MDA-MB-453), breast ductal carcinoma cells (T-47D), breast adnocarcinoma cells (MCF7), hepatocellular carcinoma cells (Huh-7 and HepG2), pancreatic carcinoma cells (PANC-1), cervix adnocarcinoma cells (Hela), IL-6-dependent Lennert's T-cell lymphoma cells (KT-3), IL-6-dependent multiple myeloma cells (INA-6), multiple myeloma cells (KMM-1 and U266), myeloid leukemia cells (HL-60), and T-cell leukemia cells (Jurkat). […] The viability of the tumor cells was then assessed using the tetrazolium-based calorimetric assay (MTT) as described in Su et al., J Mol Cell Cardiol. […] The resultant formazan crystals were solubilized with MTT lysis buffer (50% DMF, 24 mM HCl, 2% Acetic Acid, 5% SDS) and the absorbance at 595 nm was measured using a Benchmark microplate reader (BIO-RAD, Hercules, Calif.). […]

[3] = system: various human tumor cell lines (HCT116, HT29, SW480, SW620, Colo205, PC-3, Dul145, CWR22RV, LNCap, NCI-H1299, A549, NCI-H460, MDA-MB-453, T-47D, MCF7, Huh-7 …); assay: as above; assay type: cell-based; details: 0 to 5 μM, 72 h
Description: as §1, §2

MRG (MgcRacGAP) = assay: Western blot analysis of MRG protein in KT-3 cells; assay type: cell-based, human; details: KT-3 cells, 1, 5, or 20 μM, 0.5-6 hours
Description: (§3) Western Blot Analysis of MRG, STAT1, STAT3, and STAT5 Proteins in KT-3 Cells
(§4) Western Blot analysis was performed as described in Kawashima et al., J. Immunol. 2001, 167:3652-3660, with minor modifications. Briefly, KT-3 cells were treated with 1, 5, or 20 μM of compound 6 or vehicle alone in the above described IL-6-containing medium. At various time points after incubation (i.e., 0.5, 1, 3, and 6 hours after the treatment), cells were harvested and lysed using a lysis buffer (1.0% Triton X-100, 50 mM Tris-HCl (pH 7.5), 0.1 mM EDTA, 150 mM NaCl, 200 μM Na3VO4, 50 mM NaF, 1 mM dithiothreitol, 0.4 mM phenylmethylsulfonyl fluoride, 3 μg/ml of aprotinin, 2 μg/ml of pepstatin A, 1 μg/ml of leupeptin) at 2×10^7 cells/ml on ice for 30 min. Cell lysates were harvested by centrifugation at 12,000×g for 15 min. The samples (1×10^5 cell equivalent/lane) were subjected to sodium dodecyl sulfate-polyacrylamide gel electrophoresis and subsequently transferred onto Immobilon filters (Millipore). After blocked with 5% BSA, the filter was probed with anti-pSTAT3, STAT3, STAT5, STAT1, MRG or Actin Abs. The rabbit polyclonal anti-STAT3, anti-STAT5, anti-STAT1, and anti-Actin antibodies (Abs), and mouse monoclonal anti-pSTAT3 Ab (B-7) were obtained from Santa Cruz Biotechnology. Affinity purified anti-MRG Ab was prepared as described previously in Hirose et al., J. Biol. Chem. 276:5821-5828. […]

STAT3 = assay: Western blot analysis of STAT3 protein in KT-3 cells; assay type: cell-based, human; details: KT-3 cells, 1, 5, or 20 μM, 0.5-6 hours
Description: as §3, §4

STAT5 = assay: Western blot analysis of STAT5 protein in KT-3 cells; assay type: cell-based, human; details: KT-3 cells, 1, 5, or 20 μM, 0.5-6 hours
Description: as §3, §4

pSTAT3 = assay: Western blot analysis of STAT3 phosphorylation (pSTAT3) in KT-3 cells; assay type: cell-based, human; details: KT-3 cells, 1, 5, or 20 μM, 0.5-6 hours
Description: as §3, §4

STAT1 = assay: Western blot analysis of STAT1 protein in KT-3 cells; assay type: cell-based, human; details: KT-3 cells, 1, 5, or 20 μM, 0.5-6 hours
Description: as §3, §4

HCT-116 cells = assay: Human colon cancer (HCT-116) mouse xenograft model; assay type: in vivo; details: athymic nude mice, HCT-116 xenograft, 40 mg/kg i.p. daily, days 0-4 and 7-10
Description: Inhibitory Effect on Human Colon Cancer (HCT-116) in a Mouse Xenograft Model
The in vivo experiments were carried out under an Institutional Animal Care and Use Committee-approved protocol and followed Institutional guidelines for proper and humane use of animals in research. Six-week-old female athymic nude mice were purchased from the Harlan Laboratory. Each of eight mice was injected subcutaneously with 1×10^6 HCT-116 cells mixed with Matrigel (BD Bioscience) at the left flank. After injection, tumors were allowed to grow for 5 days into a palpable size (volume ˜100 mm^3) before treatment. Mice were randomized into two groups (n=4 per group). The control group was injected with a vehicle solution only (i.e., 10% DMSO and 90% corn oil), while the experimental group received a daily injection (i.p.) of compound 6 (at a dose of 40 mg/kg body weight, dissolved in the vehicle solution) from days 0 (the initiation day of injection) to 4 and from days 7 to 10. The sizes of tumors were measured twice a week using a Vernier caliper and calculated using the following formula: length×width×height×0.5236, as described in Rockwell et al., J Natl. Cancer Inst. 1972; 49:735-747.

Row | pIC50 [1] | melting point [°C] | SMILES | also measured
1 | ≥ 7.30 |  | O=C(/C=C/c1cccc(O)c1)/C=C/c1cccc(OCCCN2CCCCC2)c1 [Compound 56] | 
2 |  | 159 to 160 | COc1ccc(/C=C/C(=O)/C=C/c2cccc(O)c2)cc1OC [Compound 38] | 
3 | ≥ 7.30 |  | CCN(CC)CCOc1cccc(/C=C2\CN(C(=O)C3CC3)C/C(=C\c3cccc(OCCN(CC)CC)c3)C2=O)c1 [Compound 46] | 
4 | ≥ 7.30 |  | CCS(=O)(=O)Oc1cccc(/C=C/C(=O)/C=C/c2cccc(OS(=O)(=O)CC)c2)c1 [Compound 6] | pIC50 [2]: 5.26 to 7.70; inhibitory effects on the growth of all tumor cells tested [3]: dose-dependent inhibitory effects; MRG protein level (MRG (MgcRacGAP)): down-regulated; STAT3 protein level (STAT3): down-regulated; STAT5 protein level (STAT5): down-regulated; phosphorylation of STAT3 protein (pSTAT3): inhibited phosphorylation; expression of STAT1 (STAT1): no effect; human colon cancer growth (tumor size) (HCT-116 cells): inhibited human colon cancer growth
5 | ≥ 7.30 |  | CCS(=O)(=O)Oc1cccc(/C=C/C(=O)/C=C/c2cccc(OS(=O)(=O)CC)c2OS(=O)(=O)CC)c1 [Compound 26] | 
6 | ≥ 7.30 |  | O=C1/C(=C/c2cccc(O)c2)CN(C(=O)C2CC2)C/C1=C\c1cccc(O)c1 [Compound 16] | 
7 | ≥ 7.30 |  | O=C(/C=C/c1cccc(O)c1)/C=C/c1cccc(OCCN2CCCCC2)c1 [Compound 57] | 
8 |  | 102 to 103 | CCS(=O)(=O)Oc1cccc(/C=C/C(=O)/C=C/c2ccc(OS(=O)(=O)CC)c(OS(=O)(=O)CC)c2)c1 [Compound 43] | 
9 |  | 152 to 153 | COc1ccc(/C=C/C(=O)/C=C/c2cccc(O)c2)cc1 [Compound 39] | 
10 |  | 138 to 139 | O=C(/C=C/c1cccc(O)c1)/C=C/c1cccc(C(F)(F)F)c1 [Compound 41] | 
11 | ≥ 7.30 |  | CCN(CC)CCOc1cccc(/C=C2\CN(C(=O)C3CC3)C/C(=C\c3cccc(O)c3)C2=O)c1 [Compound 45] | 
12 | ≥ 7.30 |  | CCN(CC)CCOc1cccc(/C=C/C(=O)/C=C/c2cccc(O)c2)c1 [Compound 19] | 
13 | ≥ 7.30 |  | CCS(=O)(=O)Oc1cccc(/C=C/C(=O)/C=C/c2cc(OS(=O)(=O)CC)cc(OS(=O)(=O)CC)c2)c1 [Compound 27] | 
14 | ≥ 7.30 |  | CCN(CC)CCOc1cccc(/C=C/C(=O)/C=C/c2cccc(OCCN(CC)CC)c2O)c1 [Compound 36] | 
15 |  | 104 to 106 | CCN(CC)CCOc1cccc(/C=C/C(=O)/C=C/c2cccc(O)c2)c1 (as salt: succinic acid salt) [Compound 47] | 
16 | ≥ 7.30 |  | CCN(CC)CCOc1cccc(/C=C/C(=O)/C=C/c2cccc(O)c2O)c1 [Compound 35] | 
17 |  | 159 to 160 | O=C(/C=C/c1cccc(O)c1)/C=C/c1ccccc1F [Compound 42] | 

Row | SMILES | pIC50 [1] | melting point [°C] | also measured
18 | CCP(=O)(CC)Oc1cccc(/C=C/C(=O)/C=C/c2cccc(OP(=O)(CC)CC)c2)c1 [Compound 18] | ≥ 7.30 |  | 
